The subject of series [1] is adult rats, visual cortex contralateral to the deprived eye. Put plainly: Intracortical infusion of diazepam or vehicle during MD in fluoxetine treated rats, C/I VEP ratio. The format is in vivo, rat. Conditions: cortical diazepam 2 mg/ml during last week of chronic fluoxetine.
Protocol: Additional doses of urethane were used to keep the anesthesia level stable throughout the experiment. Body temperature was continuously monitored and maintained at ˜37° C. by a thermostated electric blanket during the experiment. An ECG was continuously monitored. A hole was drilled in the skull, corresponding to the binocular portion of the primary visual cortex (binocular area OclB) contralateral to the deprived eye. After exposure of the brain surface, the dura was removed, and a micropipette (2 MΩ) filled with NaCl (3 M) was inserted into the cortex 5 mm from λ (intersection between sagittal- and lambdoid-sutures). Both eyes were fixed and kept open by means of adjustable metal rings surrounding the external portion of the eye bulb. We measured visual acuity through both eyes using visual evoked potentials (VEPs). During recording through one eye, the other was covered by a black adhesive tape. […] Transient VEPs in response to abrupt contrast reversal (0.5 Hz) were evaluated in the time domain by measuring the peak-to-baseline amplitude and peak latency of the major negative component. Visual stimuli were horizontal sinusoidal gratings of different spatial frequencies and contrast, generated by a VSG2/2 card running custom software and presented on a monitor (20×22 cm; luminance 15 cd m^−2) positioned 20 cm from the rat's eyes and centred on the previously determined receptive fields. […]
Series [2] relates to adult amblyopic rats, visual cortex contralateral to the long-term deprived eye. Put plainly: VEP recording of visual acuity and binocularity in adult amblyopic rats (long-term MD from P21, reverse suture). Type of series: in vivo, rat. Particulars: long-term MD from P21, reverse suture last two weeks of 4-week fluoxetine, n=5, control 0.62±0.06, fellow eye 1.06±0.01. As to the method: (§1) This method of administration yields steady-state plasma concentrations of 356±99 ng/ml in rats, which is within the recommended plasma concentration for the treatment of depression in humans (50-450 ng/ml).
To perform analysis of long-term MD, rats were anesthetized with avertin (1 ml kg^−1) and monocularly deprived through eyelid suturing at P21. Eyelid closure was inspected daily until complete cicatrization; subjects with even minimal spontaneous re-opening were excluded. […] The long-term deprived eye was re-opened using thin scissors, while the other eye was sutured shut. […]
Additional doses of urethane were used to keep the anesthesia level stable throughout the experiment. Body temperature was continuously monitored and maintained at ˜37° C. by a thermostated electric blanket during the experiment. An ECG was continuously monitored. […] We measured visual acuity through both eyes using visual evoked potentials (VEPs). […] Transient VEPs in response to abrupt contrast reversal (0.5 Hz) were evaluated in the time domain by measuring the peak-to-baseline amplitude and peak latency of the major negative component. […] Binocularity (ocular dominance) was assessed calculating the contralateral to ipsilateral (C/I) VEP ratio, i.e. the ratio of VEP amplitudes recorded by stimulating the eye respectively contralateral and ipsilateral to the visual cortex where recording is performed.

For series [3], the system named is adult Long-Evans hooded rats, binocular visual cortex contralateral to the deprived eye. Description: Ocular dominance plasticity after one week of monocular deprivation (MD) in adult rats, C/I VEP ratio. The format is in vivo, rat. Particulars: fluoxetine alone, without deprivation of one eye.
Protocol: Adult Long-Evans hooded rats were used in this study. Animals were group-housed under standard conditions with food and water ad libitum in plexiglass cages (40×30×20 cm) and kept in a 12:12 light/dark cycle.
Adult animals, under treatment, were anesthetized with avertin (1 ml kg^−1) and mounted on a stereotaxic apparatus to be monocularly deprived. Eyelid closure was inspected daily until complete cicatrization; subjects with even minimal spontaneous re-opening were excluded. Great care was taken during the first days after MD to prevent inflammation or infection of the deprived eye through topical application of antibiotic and cortisone.
Additional doses of urethane were used to keep the anesthesia level stable throughout the experiment. Body temperature was continuously monitored and maintained at ˜37° C. by a thermostated electric blanket during the experiment. An ECG was continuously monitored. A hole was drilled in the skull, corresponding to the binocular portion of the primary visual cortex (binocular area OclB) contralateral to the deprived eye. […] We measured visual acuity through both eyes using visual evoked potentials (VEPs). […] Transient VEPs in response to abrupt contrast reversal (0.5 Hz) were evaluated in the time domain by measuring the peak-to-baseline amplitude and peak latency of the major negative component. […]
In series [4] the test system is adult amblyopic rats. Description: Behavioral assessment of visual acuity (visual water task) in adult amblyopic rats. Conditions: reverse suture, 4-week fluoxetine, n=5. Type of series: in vivo, rat. As to the method: as §1
To perform analysis of long-term MD, rats were anesthetized with avertin (1 ml kg^−1) and monocularly deprived through eyelid suturing at P21. Eyelid closure was inspected daily until complete cicatrization; subjects with even minimal spontaneous re-opening were excluded. […] The long-term deprived eye was re-opened using thin scissors, while the other eye was sutured shut. Great care was taken during the first days after RS to prevent inflammation or infection in the previously deprived eye through topical application of antibiotic and cortisone.
Then, after RS, during the third week of treatment (P90), we started measuring visual acuity of the long term deprived eye. […] To measure visual acuity, we used the visual water task (Prusky et al., 2000) which trains animals to first distinguish a low (0.1 cycles per degree (c deg^−1)) spatial frequency vertical grating from grey, and then tests the limit of this ability at higher spatial frequencies. The apparatus consists of a trapezoidal-shaped pool with two panels placed side by side at one end. […] A trial is recorded as incorrect if an animal enters the arm without the platform. […]

For series [5] the following is noted: humans; cited from earlier work.
The test system of series [6] is extracellular GABA and glutamate in visual cortex. Put plainly: In vivo brain microdialysis in the visual cortex with HPLC of GABA and glutamate. Details: species or system rat. Particulars: adult rats, repeated fluoxetine. As to the method:
After the end of repeated treatment with fluoxetine, the in vivo sampling of dialysates was performed inserting a microdialysis probe into the guide shaft previously implanted. A detailed description of the procedure followed is reported in (Hernandez et al., 1986). Briefly, the probe was made of concentric fused-silica polyimide covered capillary tube into a 26 gauge stainless steel tube with a 1 mm long tip of exposed cellulose membrane (6000 MW cut-off). It was connected to a dialysis system pumping an artificial CSF (142 mM NaCl, 3.9 mM KCl, 1.2 mM CaCl2, 1 mM MgCl2, 1.35 mM Na2HPO4, pH 7.4) at a flow rate of 1 μl min^−1. The probe protruded 1 mm from the tip of the guide shaft. Six hours after insertion of the probe (stabilization period), sampling was carried out.
After brain microdialysis, rats were sacrificed with an overdose of chloral hydrate and perfused intracardially as described above. Brains were post-fixed for two hours before being immersed in 30% sucrose in PBS. […]
Analysis of γ-aminobutyric acid (GABA) and glutamate (GLU) basal levels from microdialysates was performed using High Performance Liquid Chromatography (HPLC) coupled to a fluorimetric detection system. […] Homoserine was used as internal standard and amino-acid concentrations were calculated from a linear standard curve built upon known concentrations of injected amino acids. […]

Series [7] has as its system BDNF. Description: BDNF protein expression by ELISA after repeated fluoxetine administration. The format is in vivo, rat. Conditions: adult rats. As to the method:
as §1
Proteins from fresh visual cortex and hippocampus were initially extracted, respectively, using lysis buffer (1% Triton X-100, 10% Glycerol, 20 mM TrisHCl pH 7.5, 150 mM NaCl, 10 mM EDTA, 0.1 mM Na3VO4, 1¼ g/ml Leupeptin, 1¼ g/ml Aprotinin, 1 mM PMSF). The total concentration of samples was quantified with the protein assay kit (Bio-Rad, Hercules, Calif.) using a BSA based standard curve. Afterwards, BDNF expression was assessed loading 100 μg of total proteins in triplicate in a standard ELISA plate together with a standard curve and processed as indicated in the manufacturer protocol (BDNF, Promega).
For orientation: ELISA stands for enzyme-linked immunosorbent assay.

Series [8] relates to adult rat visual cortex slices. Description: LTP recordings in visual cortex slices after theta-burst stimulation from the white matter (WM-LTP). Particulars: slices from fluoxetine treated adult rats (P100), measured 20-30 min following TBS. The text has this: Slices (0.35 mm thick) of visual cortex were obtained using a Leica (Nussloch, Germany) vibratome. […] The recording solution was composed as the cutting solution with the following differences (in mM): 130 NaCl, 5.0 dextrose, 1.0 MgCl2, 2.0 CaCl2, 0.01 glycine, no kynurenate, no sucrose. Electrical stimulation (100 μsec duration) was delivered with a bipolar concentric stimulating electrode (FHC, St. Bowdoinham, Me.) placed at the border of the white matter and layer VI. Field potentials in layers II-III were recorded by a micropipette (1-3MΩ) filled with NaCl (3 M). Baseline responses were obtained every 30 sec with a stimulation intensity that yielded a half-maximal response. After achievement of a 15 min stable baseline (field potential amplitude within 15% of change and with no evident increasing or decreasing trends), θ burst stimulation (TBS) was delivered. Postsynaptic field potentials after TBS were recorded every 30 sec during 30 min.

Entries after “also recorded” stand apart in the source; their conditions may differ.

In the case of `CN1C(=O)CN=C(c2ccccc2)c2cc(Cl)ccc21` [diazepam], the “Effect on OD shift induced by MD in fluoxetine treated rats” value in series [1] was “prevented the restoration of OD plasticity; also recorded: totally prevented”.

Regarding `CNCCC(Oc1ccc(C(F)(F)F)cc1)c1ccccc1` (stereo not shown) [fluoxetine], in series [2], the “Visual acuity of the formerly deprived eye (VEP)” value turned out to be 0.97±0.04 c deg^−1. In series [3], the “Responsiveness of either eye to visual stimulation” value is “did not produce any changes”. Moreover, the “Visual acuity of the formerly deprived eye (behavioral, visual water box task)” value in series [4] worked out at 0.88±0.02 c deg^−1. The “Recommended (therapeutic) plasma concentration for the treatment of depression” value in series [5] is 50 to 450 ng/mL. In addition, the “Extracellular glutamate (GLU) levels vs controls” value in series [6] (data not shown) was “No difference”. The “Basal extracellular levels of GABA in visual cortex vs controls” value in series [6] (n=5, p<0.02) was “significantly lower; also recorded: significant reduction”. Also, the “BDNF protein expression in hippocampus vs controls” value in series [7] (t-test p<0.01 n=6) is on record as “significantly higher; also recorded: similarly enhanced”. In addition, the “BDNF protein expression in visual cortex vs controls” value in series [7] (t-test p<0.04 n=6) is given as “significantly higher”. Besides, the “WM-LTP of layer II-III field potentials after theta-burst stimulation vs controls” value in series [8] is reported as “significantly enhanced; also recorded: fully restored”.

The values above are taken from patent publication US8133906B2, “Method of treating amblyopia” (Hermo Pharma Oy, priority 2007, dated 2012).
